{
  "source": "ChEMBL document CHEMBL1150087",
  "about": "“Structural Revision of Physalin H Isolated from Physalis angulata” (1995)",
  "test_system": "HeLa",
  "experiment": "Cytotoxicity against human HeLa cells",
  "format": "functional",
  "note": "The source made the active and inactive calls. No cut-off for these calls is given here.",
  "data": [
    {"compound": "C[C@@]12C[C@H]3OC(=O)[C@@H]1CO[C@@]14O[C@]5([C@H]2C1=O)[C@@](O)(CC[C@H]1[C@H]4C[C@@H](O)[C@@]2(O)CC=CC(=O)[C@]12C)C(=O)O[C@@]35C", "values": [
      {"measurement": "ID50", "result": "inactive"}
    ]}
  ]
}
